From patent publication US11279682B2 (H. Lundbeck A/S, priority 2015, dated 2022)
Like-named read-outs stand apart in the source and are kept apart here.

Columns and labels:
[1] = cited from earlier work
[2] = Intrinsic dissolution rate, spinning-disc method; type: physicochemical; settings: for IDR (mean of 2 determinations (mg/cm2/min)): 50 mM Tris at pH 6.8, 37° C./200 RPM, as free base
Description: The intrinsic dissolution rate (IDR) is expressed as mg vortioxetine dissolved per cm^2 surface per min. The intrinsic dissolution rate is measured using the “spinning-disc method” (μDISS Profiler Instrument from Pion Instruments).
In order to define the surface from which the test compound dissolves, miniaturized disks of compacted pure test compound are made (10 mg). The disk holding the test compound is inserted into a Teflon cup containing an imbedded magnet. The cup is inserted into a vial containing 20 ml dissolution medium (37° C./200 RPM). The dissolved test compound is measured by a fibre optic detection system (200-400 nm). The concentration is determined by comparison with a standard solution and the calculated amount of test compound released (as free base) per surface area is plotted versus time. The slope gives the intrinsic dissolution rate. The measurements are performed in duplicate. The dissolution medium was 50 mM Tris at pH 6.8. Vortioxetine HBr β-form is defined in WO 2007/144005 (see e.g. example 4c and 4d).

[3] = Gelling experiments (vortioxetine pyroglutamate, a salt and water in a vial, left upside down); type: physicochemical
Excerpt: In one embodiment, the invention relates to a gel comprising vortioxetine pyroglutamate, a salt and water. […] A gel of the present invention is particularly useful for oral administration because it is easily swallowed compared to other oral administration forms, in particular tablets and capsules. A gel of the present invention may comprise other ingredients known in pharmaceutical science, in particular taste modifiers, as discussed above. In the present context and in line with the USP definition of a gel, a gel is intended to indicate a semisolid system consisting of either small […] or large organic molecules interpenetrated by a liquid. A gel thus presents as a coherent, viscous, plastic or non-disintegrating phase. […] In one embodiment, said gel comprises 0.1 M-1 M salt, such as 0.1 M-0.5 M salt, such as 0.1 M-0.3 M salt. […] The amounts of vortioxetine pyroglutamate are indicated as free base. It is the experience of the inventors that the volume of the aqueous phase and the final gel are roughly similar when the gel comprises a therapeutically relevant dose in a therapeutically relevant volume.
The gelling experiments were carried out in a 4 ml cylindrical vial with an inner diameter of approximately 1 cm.

[4] = Dynamic Vapour Sorption (hygroscopicity); type: physicochemical; settings: for Water absorbed (DVS, change in mass): humidity up to / at 95% relative humidity, 25° C.
Description: Dynamic Vapour Sorption spectra were obtained on equipment from SMS Systems (DVS Advantage). The change in mass (relative to the dry state) of a sample (10-20 mg) was determined as a function of the relative humidity (P/P0) at 25° C.

[5] = known salts, values from the cited reference
[6] = Example 8: 7.6 mg, sodium bromide in water 0.18 M, 1.0 mL, 4 mL vial
[7] = Example 1: 5.5 mg, potassium bromide in water 0.17 M, 1.0 mL, 4 mL vial
[8] = Example 3: 6.2 mg, sodium bromide total 0.26 M, 1.0 mL, 4 mL vial
[9] = Example 4: 10.7 mg, sodium bromide total 0.20 M, 1.0 mL, 4 mL vial
[10] = Example 5: 0.80 g, sodium chloride in water 0.20 M, 100 mL, 250 mL round-bottomed flask
[11] = Example 6: 8.0 mg, sodium chloride total 0.26 M, 1.0 mL, 4 mL vial
[12] = Example 7: 11.2 mg, sodium chloride total […], 1.0 mL, 4 mL vial
[13] = Example 9: 14 mg, sodium chloride 26 mg and water 2.0 mL, 4 mL vial
[14] = Example 2: 10.2 mg, potassium bromide in water 0.23 M, 1.0 mL, 4 mL vial

## Maleate
[1]; [5]
  Solubility: 1000 µg/mL

## CC(O)C(=O)O.Cc1ccc(Sc2ccccc2N2CCNCC2)c(C)c1.O [L-lactate Monohydrate2]
[1]; [5]
  Solubility: 26000 µg/mL

## O=C1CCC(C(=O)O)N1 (racemic) [DL-Pyroglutamate]
[2]
  IDR (mean of 2 determinations (mg/cm2/min)): 14.7 mg/cm2/min

## Cc1ccc(Sc2ccccc2N2CCNCC2)c(C)c1.Cl [HCl]
[1]; [5]
  Solubility: 3000 µg/mL

## Phosphate
[1]; [5]
  Solubility: 1000 µg/mL

## CC(O)C(=O)O.Cc1ccc(Sc2ccccc2N2CCNCC2)c(C)c1 [DL-lactate β-form]
[1]; [5]
  Solubility: 8000 µg/mL

## Cc1ccc(Sc2ccccc2N2CCNCC2)c(C)c1.O=C1CCC(C(=O)O)N1 [vortioxetine (L)-pyroglutamate, Vortioxetine (L)-pyroglutamate]
[3]; [6]
  Standing time until a clear gel was formed: less than 1 minute
  Time vial left upside down with gel properties maintained: more than 30 minutes
[2]
  IDR (mean of 2 determinations (mg/cm2/min)): 14.9 mg/cm2/min
[4]
  Water absorbed (DVS, change in mass): 2.7%

## Cc1ccc(Sc2ccccc2N2CCNCC2)c(C)c1.O.O=C1CCC(C(=O)O)N1 [vortioxetine (DL)-pyroglutamate MH]
[3]; [7]
  Standing time until a clear gel was formed: less than 1 minute
  Time vial left upside down with gel properties maintained: more than 1 hour
[3]; [8]
  Standing time until a clear gel was formed: less than 1 minute
  Time vial left upside down with gel properties maintained: more than 30 minutes
[3]; [9]
  Standing time until a clear gel was formed: less than 1 minute
  Time vial left upside down with gel properties maintained: more than 1 hour
[3]; [10]
  Standing time until a clear gel was formed: 2 min
  Time flask left upside down with gel properties maintained: more than 30 minutes
[3]; [11]
  Standing time until a clear gel was formed: 6 min
  Time vial left upside down with gel properties maintained: more than 1 hour
[3]; [12]
  Standing time until a clear gel was formed: 5 min
  Time vial left upside down with gel properties maintained: more than 30 minutes
[3]; [13]
  Standing time until gel was formed: less than 1 minute
  Time vial left upside down with gel properties maintained: more than 10 minutes
[4]; at 95% relative humidity
  Hygroscopicity (DVS): hygroscopic
[4]
  Water absorbed (DVS, change in mass): more than 10%
[4]; up to 80% relative humidity at 25° C.
  Hygroscopicity (DVS): not hygroscopic

## Br.Cc1ccc(Sc2ccccc2N2CCNCC2)c(C)c1 [HBr β-form, reference compound]
[2]
  IDR (mean of 2 determinations (mg/cm2/min)): 0.10 mg/cm2/min
[1]; [5]
  Solubility: 1200 µg/mL

## Cc1ccc(Sc2ccccc2N2CCNCC2)c(C)c1.O=C1CCC(C(=O)O)N1 [vortioxetine (DL)-pyroglutamate α-form]
[3]; [14]
  Standing time until a clear gel was formed: less than 1 minute
  Time vial left upside down with gel properties maintained: more than 1 hour
[4]; DVS spectrum up to 95% relative humidity
  Hygroscopicity (DVS): not hygroscopic
[4]; listed as vortioxetine (DL)pyroglutamate α-form
  Water absorbed (DVS, change in mass): Less than 0.3%

## Br.Cc1ccc(Sc2ccccc2N2CCNCC2)c(C)c1
[1]; (Calculated), WO 2014/044721
  Solubility: 3000 to 3800 µg/mL

## Cc1ccc(Sc2ccccc2N2CCNCC2)c(C)c1.O=C1CCC(C(=O)O)N1 [vortioxetine pyroglutamate]
[2]; Example 18
  Dissolution rate compared to the HBr salt: markedly higher dissolution rate
